Results reported in patent US20210040134A1, “COMBINATIONS OF MACROLIDE COMPOUNDS AND IMMUNE CHECKPOINT INHIBITORS” (ISR IMMUNE SYSTEM REGULATION HOLDING AB (PUBL), priority 2018, published 2021).

Assays:
CD4+ T cells = assay: IL-1 beta secretion from CD4+ T cells (cytometric bead assay); type: cell-based, human; details: 2 days
Experimental: (§1) FIG. 13: IL1 b secretion (as measured by cytometric bead assay) from PBMC, macrophages or CD4 T cells stimulated with indicated compound for 48 h.
(§2) Study 12: PBMCs, macrophages and CD4+ T cells where exposed to compounds 1 and 2 for 2 days.

[1] = Human microsome stability assay; type: in vitro ADME; details: pH 7.4, human liver microsomes, read-out: T½
Experimental: Rate of metabolism in microsomes was tested as follows:
Human liver microsomes were diluted with buffer C (0.1 M Potassium Phosphate buffer, 1.0 mM EDTA, pH 7.4) to a concentration of […]. Microsomal stability studies were carried out by adding 30 μL of 1.5 μM compound spiking solution to wells (1.5 μL of 500 μM spiking solution (10 μL of 10 mM DMSO stock solution into 190 μL ACN to eventually generate final test concentration of 1 uM) and 18.75 μL of 20 mg/mL liver microsomes into 479.75 μL of Buffer C). All samples were pre-incubated for approximately 15 minutes at 37° C. Following this, the reaction was initiated by adding 15 μL of the NADPH solution (6 mM) with gentle mixing. Aliquots (40 μL) were removed at 0, 5, 15, 30 and 45 minutes and quenched with ACN containing internal standard (135 μL). Protein was removed by centrifugation (4000 rpm, 15 min) and the sample plate analysed for compound concentration by LC-MS/MS. Half-lives were then calculated by standard methods, comparing the concentration of analyte with the amount originally present.
The metabolic stability of the compounds of the invention was assessed in a standard human microsome stability assay (see general methods).

macrophages = assay: Cytokine secretion from macrophages (cytometric bead assay); type: cell-based, human
Experimental: FIG. 10: Interferon-gamma secretion (as measured by cytometric bead assay) from macrophages stimulated with indicated compound for 48 h.
FIG. 11: Chemokine RANTES secretion (as measured by cytometric bead assay) from PBMC or macrophages stimulated with indicated compound for 48 h.
FIG. 12: IL12p70 secretion (as measured by cytometric bead assay) from PBMC or macrophages stimulated with indicated compound for 48 h.
as §1
Study 9: Macrophages from healthy donors where exposed to compounds 1 or 2 for 48 hours. […] Compound 1 is therefore able to induce IFN-gamma secretion in macrophages from healthy donors.
Study 10: PBMCs and macrophages where exposed to compounds 1 or 2 for 2 days (FIG. 11).
Study 11: PBMCs and macrophages where exposed to compounds 1 and 2 for 2 days.
as §2

[2] = tested on: peripheral blood mononuclear cells (PBMC); assay: Marker expression on stimulated PBMC by flow cytometry; type: cell-based, human; details: 24 h
Experimental: Human peripheral blood mononuclear cells (PBMCs) were purified from healthy donors with Ficoll-Paque density centrifugation. Cells were cultured in complete RPMI-1640 media (Invitrogen) supplemented with 25 mM HEPES, L-glutamine, Sodium pyruvate (Sigma), 10% fetal bovine serum, 100 μg/mL penicillin and 100 μg/mL streptomycin (Hyclone) for 24-72 hours in 37° C., 5% CO2 and stimulated with and increasing concentrations of compound 1 and 2. Cells were then washed in PBS and stained with monoclonal antibodies specific for cell surface markers (BD Pharmingen) and analysed with flow cytomtetry using a BD FACS Canto II flow cytometer. All samples were tested in duplicates.
Human peripheral blood mononuclear cells (PBMCs) were purified from healthy donors with Ficoll-Paque density centrifugation. Cells were cultured in complete RPMI-1640 medium (Invitrogen) supplemented with 25 mM HEPES, L-glutamine, Sodium pyruvate (Sigma), 10% fetal bovine serum, 100 μg/mL penicillin and 100 μg/mL streptomycin (Hyclone). […] The cells were removed from the plate, washed in PBS and analysed for expression of cell specific surface markers and MHC class I with flow cytomtery using monoclonal antibodies from BD Pharmingen and a FACS Canto II flow cytometer.

human TLR2 = target: T1, human TLR2 (Homo sapiens, UniProt O60603); assay: TLR2 reporter assay (HEK-293-TLR, SEAP); type: cell-based; details: concentrations up to 20 uM
T1 construct: host or cells: recombinant HEK-293-TLR cell lines
Experimental: Samples and controls were tested in duplicate on recombinant HEK-293-TLR cell lines using a cell reporter assay at Invivogen using their standard assay conditions. These cell lines functionally over-express human TLR2 protein as well as a reporter gene which is a secreted alkaline phosphatase (SEAP). The production of this reporter gene is driven by an NFkB inducible promoter. The TLR reporter cell lines activation results are given as optical density values (OD).
20 μl of each test article were used to stimulate the hTLR2 reporter cell lines in a 200 μl of final reaction volume. Samples were tested in duplicate, with at least two concentrations tested—20 uM and 10 uM.
Compounds were tested using a TLR2 reporter assay (see general methods) that measured for stimulation of the TLR2 receptor. Stimulatory effect was measured as an increase in optical density (OD) due to release of secreted alkaline phosphatase (SEAP) and is shown in table 4: […]

[3] = tested on: PBMCs from CMV infected donors; assay: IFN-gamma secretion from PBMCs of CMV infected donors with CMV antigen (cytometric bead assay); type: cell-based, human; details: 3 days
Source text: FIG. 9: Interferon-gamma secretion (as measured by cytometric bead assay) from PBMCs (from a CMV+ donor) grown with CMV peptides in the presence or absence of compound 1 or A for 5 days.
Study 8: PBMCs from CMV infected donors cultured in the presence of CMV antigen where either untreated or exposed to compound 1 or compound 2 for 3 days.

[4] = Caco-2 bidirectional permeability assay; type: in vitro ADME; details: human, Caco-2; B to A permeability divided by A to B permeability
Experimental: (§3) 10 μM Test article was added to the apical (A) surface of Caco-2 cell monolayers (in HBSS buffer with 0.3% DMSO and 5 μM LY at 37 degrees C.) and compound permeation into the basolateral (B) compartment measured following 90 minutes incubation. This was also performed in the reverse direction (basolateral to apical) to investigate active transport. LC-MS/MS is used to quantify levels of both the test and standard control compounds. Efflux ratio was calculated by dividing the B to A permeability by the A to B permeability.
(§4) Drug permeability:Papp=(VA/(Area×time))×([drug]accepter/(([drug]initial,donor)×Dilution Factor)
(§5) The permeability of the compounds of the invention was assessed in a standard caco-2 bidirectional permeability assay (see general methods).

Caco-2 cell monolayers = assay: Caco-2 bidirectional permeability assay; type: in vitro ADME; details: Caco-2, 10 μM test article, 90 minutes
Experimental: as §3, §4, §5

T1 sequence (O60603 21-784): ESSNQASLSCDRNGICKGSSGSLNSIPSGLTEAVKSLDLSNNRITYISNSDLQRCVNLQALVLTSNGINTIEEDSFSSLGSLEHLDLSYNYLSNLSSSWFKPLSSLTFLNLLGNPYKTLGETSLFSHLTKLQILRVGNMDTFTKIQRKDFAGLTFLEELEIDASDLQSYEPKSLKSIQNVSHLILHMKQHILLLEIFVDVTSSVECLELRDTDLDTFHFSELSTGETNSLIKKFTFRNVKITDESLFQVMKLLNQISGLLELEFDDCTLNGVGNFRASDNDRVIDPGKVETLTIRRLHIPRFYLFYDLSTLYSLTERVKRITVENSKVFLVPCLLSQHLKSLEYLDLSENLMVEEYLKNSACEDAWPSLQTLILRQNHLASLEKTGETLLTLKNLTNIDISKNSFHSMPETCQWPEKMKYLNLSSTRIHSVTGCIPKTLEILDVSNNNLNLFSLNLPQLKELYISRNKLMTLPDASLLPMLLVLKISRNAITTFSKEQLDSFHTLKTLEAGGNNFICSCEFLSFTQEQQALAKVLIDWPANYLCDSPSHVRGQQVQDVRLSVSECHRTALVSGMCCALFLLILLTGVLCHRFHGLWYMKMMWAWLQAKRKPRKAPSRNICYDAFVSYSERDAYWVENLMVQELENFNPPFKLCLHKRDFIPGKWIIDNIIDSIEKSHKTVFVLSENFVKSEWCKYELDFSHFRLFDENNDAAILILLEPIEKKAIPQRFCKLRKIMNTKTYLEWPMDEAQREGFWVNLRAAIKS

## CC[C@H]1OC(=O)[C@H](C)[C@@H](O[C@H]2C[C@@H](N(C)C)[C@H](O)[C@@H](C)O2)[C@H](C)[C@@H](O)[C@](C)(O)C[C@@H](C)CN(C)[C@H](C)[C@@H](O)[C@]1(C)O [Compound 1]
CD4+ T cells
  IL-1 beta secretion in CD4+ T cells: no IL-1 beta was induced
[1]
  half-life at 1 uM: 1.8 h
macrophages; 2 days
  IL-1 beta secretion in macrophages: increased
  IL-12p70 secretion from macrophages: secreted IL-12p70
macrophages; 48 hours
  IFN-gamma secretion from macrophages: secreted IFN-gamma
[2]; 1 μM
  activation marker CD69 on CD4+ T cells and B cells: upregulated
[2]
  MHC class I molecule (HLA-ABC) on T- and B-cells: upregulation
Human TLR2
  TLR2 stimulation (in words): stimulated TLR2 at concentrations down to 5 uM
[3]
  IFN-gamma secretion: induced secretion of high levels of IFN-gamma
[4]
  efflux ratio at 90 minutes, 10 μM: 63
Caco-2 cell monolayers
  Papp: 0.32 × 10^6/cm · s^−1
